From the supplement of paper PMC7796163
± gives the uncertainty stated by the source.

Key:
Assay in all cases: CYP enzyme activity (probe substrate metabolite formation) fold change vs solvent control; higher = stronger induction of CYP activity
Settings in all cases: HepaRG
CYP2C19 = CYP2C19 (UniProt P33261)
Description: (§1)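 Differentiated HepaRG cells were treated with 1, 5 or 10 µM of each PAH (0.5% DMSO) for 12, 24 or 48 h, then incubated for 3 h at 37 °C with a cocktail of isoform-specific CYP substrates (phenacetin for CYP1A2, bupropion for CYP2B6, amodiaquine for CYP2C8, tolbutamide for CYP2C9, mephenytoin for CYP2C19, propafenone for CYP2D6, atorvastatin for CYP3A4). Metabolite formation was quantified by LC-MS as a measure of CYP activity and reported as fold change over solvent control (mean ± SD, n=3). Values below the LLOQ were set to half the LLOQ.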

CYP2C9 = CYP2C9 (UniProt P11712)
Sequence of CYP2C9 (P11712 whole entry): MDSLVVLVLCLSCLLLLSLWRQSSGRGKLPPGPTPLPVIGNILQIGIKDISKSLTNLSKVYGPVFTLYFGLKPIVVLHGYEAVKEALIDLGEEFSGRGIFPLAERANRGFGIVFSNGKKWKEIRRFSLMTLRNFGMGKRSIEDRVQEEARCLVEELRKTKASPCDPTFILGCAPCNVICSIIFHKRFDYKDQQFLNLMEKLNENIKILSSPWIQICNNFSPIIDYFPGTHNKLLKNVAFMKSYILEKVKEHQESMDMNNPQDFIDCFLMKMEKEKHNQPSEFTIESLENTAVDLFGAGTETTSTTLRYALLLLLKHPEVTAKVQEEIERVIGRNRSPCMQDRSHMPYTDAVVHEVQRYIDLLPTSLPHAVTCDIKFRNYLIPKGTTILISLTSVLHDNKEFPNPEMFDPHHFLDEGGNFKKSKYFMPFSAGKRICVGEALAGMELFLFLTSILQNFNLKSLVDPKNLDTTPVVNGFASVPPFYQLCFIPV
Description: as §1

CYP1A2 = molecular target: T1, CYP1A2 (UniProt P05177)
T1 sequence (whole entry): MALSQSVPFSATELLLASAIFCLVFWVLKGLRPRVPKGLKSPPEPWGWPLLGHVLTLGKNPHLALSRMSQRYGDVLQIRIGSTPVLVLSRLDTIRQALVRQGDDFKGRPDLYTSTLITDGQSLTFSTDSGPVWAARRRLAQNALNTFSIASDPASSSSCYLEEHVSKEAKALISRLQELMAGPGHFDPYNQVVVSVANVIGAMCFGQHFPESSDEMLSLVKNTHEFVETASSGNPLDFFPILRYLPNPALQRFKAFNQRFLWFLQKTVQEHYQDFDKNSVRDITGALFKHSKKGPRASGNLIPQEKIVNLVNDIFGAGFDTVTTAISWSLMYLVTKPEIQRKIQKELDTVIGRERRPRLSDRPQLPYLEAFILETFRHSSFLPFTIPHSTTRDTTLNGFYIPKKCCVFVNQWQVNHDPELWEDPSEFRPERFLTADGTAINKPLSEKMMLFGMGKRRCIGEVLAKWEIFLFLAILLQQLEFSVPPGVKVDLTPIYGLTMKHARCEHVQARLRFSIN
Description: as §1

CYP2C8 = molecular target: T2, CYP2C8 (UniProt P10632)
T2 sequence (whole entry): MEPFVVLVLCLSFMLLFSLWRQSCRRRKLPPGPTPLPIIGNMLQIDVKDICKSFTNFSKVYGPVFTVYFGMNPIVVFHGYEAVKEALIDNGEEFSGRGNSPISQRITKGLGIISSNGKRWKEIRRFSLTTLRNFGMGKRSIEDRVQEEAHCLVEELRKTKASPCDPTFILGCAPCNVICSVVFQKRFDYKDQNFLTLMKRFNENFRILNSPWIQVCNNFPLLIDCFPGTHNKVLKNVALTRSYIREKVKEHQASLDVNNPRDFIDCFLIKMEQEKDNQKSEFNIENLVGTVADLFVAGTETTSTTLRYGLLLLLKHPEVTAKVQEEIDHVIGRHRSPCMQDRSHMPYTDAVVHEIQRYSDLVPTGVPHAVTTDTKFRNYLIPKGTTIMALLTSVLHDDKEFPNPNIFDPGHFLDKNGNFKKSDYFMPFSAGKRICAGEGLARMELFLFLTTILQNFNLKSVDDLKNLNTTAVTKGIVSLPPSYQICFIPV
Description: as §1

CYP3A4 = CYP3A4 (UniProt P08684)
Sequence of CYP3A4 (P08684 whole entry): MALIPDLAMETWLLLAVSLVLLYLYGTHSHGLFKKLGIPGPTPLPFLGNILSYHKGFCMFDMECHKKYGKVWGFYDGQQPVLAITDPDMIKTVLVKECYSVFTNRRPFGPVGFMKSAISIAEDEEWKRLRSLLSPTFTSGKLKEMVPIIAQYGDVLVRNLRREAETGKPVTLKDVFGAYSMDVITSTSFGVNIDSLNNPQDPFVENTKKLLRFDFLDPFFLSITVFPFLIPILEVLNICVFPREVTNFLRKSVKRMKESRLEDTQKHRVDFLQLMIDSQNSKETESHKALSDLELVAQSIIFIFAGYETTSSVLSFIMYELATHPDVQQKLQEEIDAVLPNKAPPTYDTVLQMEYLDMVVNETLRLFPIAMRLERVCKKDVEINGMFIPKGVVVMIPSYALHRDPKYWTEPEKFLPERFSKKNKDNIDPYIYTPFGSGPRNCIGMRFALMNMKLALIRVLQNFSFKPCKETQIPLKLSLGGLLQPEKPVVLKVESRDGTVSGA
Description: as §1

CYP2D6 = CYP2D6 (UniProt P10635)
Sequence of CYP2D6 (P10635 whole entry): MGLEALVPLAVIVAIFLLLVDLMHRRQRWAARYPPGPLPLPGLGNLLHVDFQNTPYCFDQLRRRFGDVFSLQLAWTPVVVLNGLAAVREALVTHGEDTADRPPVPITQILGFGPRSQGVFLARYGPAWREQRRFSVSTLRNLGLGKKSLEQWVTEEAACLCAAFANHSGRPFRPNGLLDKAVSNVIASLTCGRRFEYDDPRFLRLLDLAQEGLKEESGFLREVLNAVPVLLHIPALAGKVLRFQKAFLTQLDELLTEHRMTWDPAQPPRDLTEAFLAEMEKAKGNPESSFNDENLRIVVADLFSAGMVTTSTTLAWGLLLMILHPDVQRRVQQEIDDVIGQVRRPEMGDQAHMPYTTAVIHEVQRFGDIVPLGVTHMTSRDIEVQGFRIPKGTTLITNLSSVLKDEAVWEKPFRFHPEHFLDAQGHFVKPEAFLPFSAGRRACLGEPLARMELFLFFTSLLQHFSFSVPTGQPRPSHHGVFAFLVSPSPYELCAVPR
Description: as §1

CYP2B6 = molecular target: T3, CYP2B6 (UniProt P20813)
T3 sequence (whole entry): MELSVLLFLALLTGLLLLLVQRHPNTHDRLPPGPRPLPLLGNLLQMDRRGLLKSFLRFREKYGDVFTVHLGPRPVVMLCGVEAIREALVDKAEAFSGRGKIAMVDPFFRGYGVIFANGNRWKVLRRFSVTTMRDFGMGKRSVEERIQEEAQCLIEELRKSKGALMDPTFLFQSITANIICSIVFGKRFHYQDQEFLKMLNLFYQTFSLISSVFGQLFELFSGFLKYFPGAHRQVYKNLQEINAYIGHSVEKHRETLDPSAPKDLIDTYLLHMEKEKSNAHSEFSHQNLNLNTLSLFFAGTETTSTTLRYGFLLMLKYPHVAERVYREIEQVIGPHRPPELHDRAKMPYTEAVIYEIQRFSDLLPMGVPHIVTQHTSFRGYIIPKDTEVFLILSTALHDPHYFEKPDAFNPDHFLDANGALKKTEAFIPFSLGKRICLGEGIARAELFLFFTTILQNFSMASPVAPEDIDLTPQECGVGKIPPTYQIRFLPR
Description: as §1

Sequence of CYP2C19 (P33261 whole entry, canonical isoform): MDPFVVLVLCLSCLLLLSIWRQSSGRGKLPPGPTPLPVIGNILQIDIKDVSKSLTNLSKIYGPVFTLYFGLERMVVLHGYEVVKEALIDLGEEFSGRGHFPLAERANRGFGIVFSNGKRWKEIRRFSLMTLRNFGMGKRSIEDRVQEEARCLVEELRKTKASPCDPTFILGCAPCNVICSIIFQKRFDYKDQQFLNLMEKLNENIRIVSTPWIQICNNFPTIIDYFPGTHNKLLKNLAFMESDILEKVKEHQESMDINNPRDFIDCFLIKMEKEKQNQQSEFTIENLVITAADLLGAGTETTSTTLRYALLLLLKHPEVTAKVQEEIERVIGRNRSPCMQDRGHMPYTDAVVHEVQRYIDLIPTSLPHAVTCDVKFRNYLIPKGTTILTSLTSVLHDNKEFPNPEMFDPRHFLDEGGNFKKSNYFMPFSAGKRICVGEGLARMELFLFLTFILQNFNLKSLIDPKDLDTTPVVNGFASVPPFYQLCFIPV

c1ccc2c(c1)ccc1ccc3ccccc3c12 [benzo[c]phenanthrene]
CYP enzyme activity
Settings	CYP1A2	CYP2B6	CYP2C8	CYP2C9	CYP2C19	CYP2D6	CYP3A4
1 µM, treatment time 12 h	1.2 ± 0.049	1.02 ± 0.17	0.945 ± 0.051	1 ± 0.12	0.916 ± 0.088	0.94 ± 0.24	0.867 ± 0.084
1 µM, treatment time 24 h	1.09 ± 0.19	1.04 ± 0.22	0.9596 ± 0.0094	0.961 ± 0.13	0.911 ± 0.071	0.773 ± 0.029	0.843 ± 0.057
1 µM, treatment time 48 h	0.925 ± 0.032	0.921 ± 0.08	0.962 ± 0.092	0.922 ± 0.044	1.04 ± 0.098	0.772 ± 0.073	0.834 ± 0.058
5 µM, treatment time 12 h	1.34 ± 0.12	1.31 ± 0.13	0.947 ± 0.022	1.02 ± 0.14	1.04 ± 0.074	0.992 ± 0.11	0.926 ± 0.014
5 µM, treatment time 24 h	1.28 ± 0.1	1.81 ± 0.2	1.04 ± 0.064	1.15 ± 0.067	1.09 ± 0.061	1.05 ± 0.059	1.002 ± 0.0053
5 µM, treatment time 48 h	1.28 ± 0.21	2.27 ± 0.63	1.09 ± 0.081	1.28 ± 0.19	1.19 ± 0.098	1.05 ± 0.13	1.13 ± 0.1
10 µM, treatment time 12 h	1.5 ± 0.24	1.27 ± 0.27	0.958 ± 0.041	1.01 ± 0.17	1.03 ± 0.053	1.04 ± 0.14	0.849 ± 0.017
10 µM, treatment time 24 h	1.5 ± 0.19	2.02 ± 0.19	1.13 ± 0.05	1.103 ± 0.011	1.03 ± 0.096	1.13 ± 0.068	0.999 ± 0.095
10 µM, treatment time 48 h	1.46 ± 0.14	2.87 ± 0.24	1.08 ± 0.066	1.21 ± 0.11	1.19 ± 0.095	1.08 ± 0.097	1.2 ± 0.083
